From US7834045B2, “N-substituted pyrazolyl carboxanilides” (Bayer CropScience AG, priority 2003, dated 2010)

Columns and labels:
Puccinia recondita = assay: Puccinia test (wheat)/protective; assay type: in vivo; conditions: protective, application rate 500 g/ha, evaluation 10 days after inoculation
Experimental: • Solvent: 25 parts by weight of N,N-dimethylacetamide • Emulsifier: 0.6 part by weight of alkylaryl polyglycol ether To produce a suitable preparation of active compound, 1 part by weight of active compound is mixed with the stated amounts of solvent and emulsifier, and the concentrate is diluted with water to the desired concentration. To test for protective activity, young plants are sprayed with the preparation of active compound at the stated application rate. After the spray coating has dried on, the plants are sprayed with a conidia suspension of Puccinia recondita. The plants remain in an incubation cabinet at 20° C. and 100% relative atmospheric humidity for 48 hours. The plants are then placed in a greenhouse at a temperature of about 20° C. and a relative atmospheric humidity of 80% to promote the development of rust pustules. Evaluation is carried out 10 days after the inoculation. 0% means an efficacy which corresponds to that of the control, whereas an efficacy of 100% means that no infection is observed.

Sphaerotheca fuliginea = assay: Sphaerotheca test (cucumber)/protective; assay type: in vivo; conditions: protective, application rate 750 g/ha, evaluation 7 days after inoculation
Experimental: • Solvent: 49 parts by weight of N,N-dimethylformamide • Emulsifier: 1 part by weight of alkylaryl polyglycol ether To produce a suitable preparation of active compound, 1 part by weight of active compound is mixed with the stated amounts of solvent and emulsifier, and the concentrate is diluted with water to the desired concentration. To test for protective activity, young cucumber plants are sprayed with the preparation of active compound at the stated application rate. 1 day after the treatment, the plants are inoculated with a spore suspension of Sphaerotheca fuliginea. The plants are then placed in a greenhouse at 70% relative atmospheric humidity and a temperature of 23° C. Evaluation is carried out 7 days after the inoculation. 0% means an efficacy which corresponds to that of the control, whereas an efficacy of 100% means that no infection is observed.

[1] = log P determination by HPLC on reversed-phase column (EEC Directive 79/831 Annexe V.A8); assay type: physicochemical; conditions: reversed-phase HPLC column (C 18), pH 2.3, C 18, 43° C., preparation examples
Experimental: The log P values given in the preparation examples and tables above are determined in accordance with EEC Directive 79/831 Annexe V.A8 by HPLC (High Performance Liquid Chromatography) on a reversed-phase column (C 18). Temperature: 43° C.
The determination in the acidic range is carried out at pH 2.3 using the mobile phases 0.1% aqueous phosphoric acid and acetonitrile; linear gradient from 10% acetonitrile to 90% acetonitrile.
Calibration was carried out using unbranched alkan-2-ones (with 3 to 16 carbon atoms) with known log P values (determination of the log P values by the retention times using linear interpolation between two successive alkanones).

Podosphaera leucotricha = assay: Podosphaera test (apple)/protective; assay type: in vivo; conditions: protective, application rate 100 g/ha, evaluation 10 days after inoculation
Experimental: (§1) • Solvents: 24.5 parts by weight of acetone • 24.5 parts by weight of dimethylacetamide • Emulsifier: 1 part by weight of alkylaryl polyglycol ether
(§2) To produce a suitable preparation of active compound, 1 part by weight of active compound is mixed with the stated amounts of solvents and emulsifier, and the concentrate is diluted with water to the desired concentration.
To test for protective activity, young plants are sprayed with the preparation of active compound at the stated application rate. After the spray coating has dried on, the plants are inoculated with an aqueous spore suspension of the apple mildew pathogen Podosphaera leucotricha. The plants are then placed in a greenhouse at about 23° C. and a relative atmospheric humidity of about 70%.
(§3) Evaluation is carried out 10 days after the inoculation. 0% means an efficacy which corresponds to that of the control, whereas an efficacy of 100% means that no infection is observed.

Venturia inaequalis = assay: Venturia test (apple)/protective; assay type: in vivo; conditions: protective, application rate 100 g/ha, evaluation 10 days after inoculation
Experimental: as §1, §2
To test for protective activity, young plants are sprayed with the preparation of active compound at the stated application rate. After the spray coating has dried on, the plants are inoculated with an aqueous conidia suspension of the apple scab pathogen Venturia inaequalis and then remain in an incubation cabinet at about 20° C. and 100% relative atmospheric humidity for one day.
The plants are then placed in a greenhouse at about 21° C. and a relative atmospheric humidity of about 90%.
as §3

Botrytis cinerea = assay: Botrytis test (bean)/protective; assay type: in vivo; conditions: protective, application rate 500 g/ha, evaluation 2 days after inoculation
Experimental: as §1
To produce a suitable preparation of active compound, 1 part by weight of active compound is mixed with the stated amounts of solvent and emulsifier, and the concentrate is diluted with water to the desired concentration.
To test for protective activity, young plants are sprayed with the preparation of active compound at the stated application rate. After the spray coating has dried on, 2 small pieces of agar colonized by Botrytis cinerea are placed onto each leaf. The inoculated plants are placed in a dark chamber at about 20° C. and 100% relative atmospheric humidity.
2 days after the inoculation, the size of the infected areas on the leaves is evaluated. 0% means an efficacy which corresponds to that of the control, whereas an efficacy of 100% means that no infection is observed.

Q: With `Cc1nn(C)c(F)c1C(=O)N(C)c1ccccc1C(C)CC(C)(C)C` (centres unmarked) as the molecule, how does the Efficacy in % (Puccinia recondita) read?
A: 100%

Q: For `Cc1nn(C)c(F)c1C(=O)N(C)c1ccccc1C(C)CC(C)C` (centres unmarked), which Efficacy in % (Puccinia recondita) is on record?
A: 100%

Q: Which Efficacy in % (Sphaerotheca fuliginea) does the source give for `CC(CC(C)(C)C)c1ccccc1N(C)C(=O)c1c(C(F)(F)F)nn(C)c1F` (centres unmarked) here?
A: 100%

Q: With `CC(=O)N(C(=O)c1c(C(F)(F)F)nn(C)c1F)c1ccccc1C(C)CC(C)(C)C` (centres unmarked) [Example 1, N-acetyl-5-fluoro-1-methyl-3-(trifluoromethyl)-N-[2-(1,3,3-trimethylbutyl)phenyl]-1H-pyrazole-4-carboxamide] as the molecule, how does the chromatographic logP [1] read?
A: 4.63

Q: For `CCOC(=O)C(=O)N(C(=O)c1c(C)nn(C)c1F)c1ccccc1C(C)CC(C)(C)C` (centres unmarked) [Example 2, ethyl {[(5-fluoro-1,3-dimethyl-1H-pyrazol-4-yl)carbonyl][2-(1,3,3-trimethylbutyl)phenyl]amino}(oxo)acetate], which chromatographic logP [1] is on record?
A: 4.4

Q: With `CC(=O)Nc1ccccc1C(C)CC(C)C` (centres unmarked) [III-1, N-[2-(1,3-dimethylbutyl)phenyl]acetamide] as the molecule, how does the chromatographic logP [1] read?
A: 2.65

Q: With `COCN(C(=O)c1c(C(F)(F)F)nn(C)c1F)c1ccccc1C(C)CC(C)(C)C` (centres unmarked) [drawing 19] as the molecule, how does the Efficacy in % (Podosphaera leucotricha) read?
A: 98%

Q: With `CCOC(=O)C(=O)N(C(=O)c1c(C)nn(C)c1F)c1ccccc1C(C)CC(C)(C)C` (centres unmarked) [drawing 20] as the molecule, how does the Efficacy in % (Podosphaera leucotricha) read?
A: 97%

Q: Which Efficacy in % (Venturia inaequalis) does the source give for `COCN(C(=O)c1c(C(F)(F)F)nn(C)c1F)c1ccccc1C(C)CC(C)(C)C` (centres unmarked) [drawing 21] here?
A: 100%

Q: For `CCOC(=O)C(=O)N(C(=O)c1c(C)nn(C)c1F)c1ccccc1C(C)CC(C)(C)C` (centres unmarked) [drawing 22], which Efficacy in % (Venturia inaequalis) is on record?
A: 100%

Q: Which Efficacy in % (Botrytis cinerea) does the source give for `COCN(C(=O)c1c(C(F)(F)F)nn(C)c1F)c1ccccc1C(C)CC(C)(C)C` (centres unmarked) [drawing 23] here?
A: 100%

Q: With `CCOC(=O)C(=O)N(C(=O)c1c(C)nn(C)c1F)c1ccccc1C(C)CC(C)(C)C` (centres unmarked) [drawing 24] as the molecule, how does the Efficacy in % (Botrytis cinerea) read?
A: 97%

Q: Which Efficacy in % (Puccinia recondita) does the source give for `COCN(C(=O)c1c(C(F)(F)F)nn(C)c1F)c1ccccc1C(C)CC(C)(C)C` (centres unmarked) [drawing 25] here?
A: 100%

Q: For `COCN(C(=O)c1c(C(F)(F)F)nn(C)c1F)c1ccccc1C(C)CC(C)(C)C` (centres unmarked) [drawing 29], which Efficacy in % (Sphaerotheca fuliginea) is on record?
A: 100%
